Reference: PMC7134601 (Febs Letters, 2004)
Entries after “also recorded” stand apart in the source; their conditions may differ.

Columns and labels:
SARS‐CoV 3CL protease = SARS‐CoV 3CL protease (Severe acute respiratory syndrome coronavirus, UniProt P0C6X7); test: biochemical; type: biochemical
SARS‐CoV [1] = type: cell-based
SARS‐CoV [2] = type: cell-based; remark: listed apart in the source

SMILES | inhibition pattern with respect to the substrate (SARS‐CoV 3CL protease) | inhibition of 3CL protease activity (SARS‐CoV 3CL protease) | Ki (SARS‐CoV 3CL protease) | also measured
[O-]n1ccccc1=S.[O-]n1ccccc1=S.[Zn+2] [1‐Hydroxypyridine‐2‐thione zinc] | competitive |  |  | 
[Co+2] [Co^2+] |  | did not inhibit |  | 
[Cu+2] [Cu^2+] |  | effective | 4900 ± 1300 nM | 
Oc1c(Cl)cc(Cl)c(Cl)c1Cc1c(O)c(Cl)cc(Cl)c1Cl [Hexachlorophene] | competitive |  | 13700 ± 400 nM | cytotoxicity (Vero E6 cells): No cytotoxicity; cells still alive (Vero E6 cells; African green monkey): approximately 50%; inhibition of cytopathic effect (SARS‐CoV [1]): strong inhibition
[Hg+2] [Hg^2+] |  | effective |  | 
[Mg+2] [Mg^2+] |  | did not inhibit |  | 
[Mn+2] [Mn^2+] |  | did not inhibit |  | 
[Ni+2] [Ni^2+] |  | did not inhibit |  | 
CC(=O)[O][Hg][c]1ccccc1 [Phenylmercuric acetate] | competitive |  | 700 ± 300 nM | effect on detection of the viral spike protein (SARS‐CoV [2]): suppressed detection of the viral spike protein
C[CH2][Hg][S]c1ccccc1C(=O)[O-].[Na+] [Thimerosal] | competitive |  | 2400 ± 200 nM | decrease of the detectable quantity of the spike protein (SARS‐CoV [2]): over 90%
[Zn+2] [Zn^2+] | non‐competitively; also recorded: non‐competitive | effective | 1100 ± 400 nM | fold larger K i versus 1‐hydroxypyridine‐2‐thione zinc (SARS‐CoV 3CL protease): 6 fold
O=C(Nc1ccc([N+](=O)[O-])cc1Cl)c1cc(Cl)ccc1O [niclosamide, Niclosamide] |  | not indicative of any inhibitory effect |  | 
